Where two headings read alike, the source gives them in different places.
What was measured:
Type in all cases: in vivo
[1] = tested on: nightshade (eastern black nightshade, Solanum ptycanthum); assay: Test B pre-/postemergence plant response; settings: Preemergence
Method in brief: (§1)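 Seeds were sown in loam soil/sand blend and treated preemergence with compound in non-phytotoxic solvent mixture containing surfactant; postemergence sprays, same formulation, went onto plants 2 to 18 cm (1- to 4-leaf stage) in peat-based planting medium. Greenhouse 13 to 15 days, then visual rating versus untreated controls, 0 (no effect) to 100 (complete control).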

[2] = tested on: sunflower (common oilseed sunflower, Helianthus annuus); assay: Test B pre-/postemergence plant response; settings: Preemergence
Method in brief: as §1

[3] = tested on: corn (Zea mays); assay: Test A pre-/postemergence plant response
Method in brief: (§2)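 Each species was treated preemergence via directed soil spray and postemergence at the one- to two-leaf stage, with compounds formulated in a non-phytotoxic solvent plus surfactant. Visual injury relative to untreated controls was rated after about ten days on a 0–100 scale.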

[4] = tested on: pigweed (Amaranthus retroflexus); assay: Test A pre-/postemergence plant response; settings: for pest or weed control at 125 g/ha / pest or weed control at 500 g/ha: Amaranthus retroflexus, 240 h
Method in brief: as §2

[5] = tested on: barnyardgrass (Echinochloa crus-galli); assay: Test A pre-/postemergence plant response; settings: for pest or weed control at 125 g/ha / pest or weed control at 500 g/ha: Echinochloa crus-galli, 240 h
Method in brief: as §2

[6] = tested on: giant foxtail (Setaria faberii); assay: Test A pre-/postemergence plant response; settings: for pest or weed control at 125 g/ha / pest or weed control at 500 g/ha: Setaria faberi, 240 h
Method in brief: as §2

[7] = tested on: umbrella sedge (Cyperus difformis); assay: Test B flooded paddy test
Method in brief: (§3)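 Visual scores run from 0 (no effect) to 100 (complete control), assigned by comparison with controls 13 to 15 days after treatment. Test compounds went straight into water standing 3 cm above the soil, around plants at the 2-leaf stage kept in a greenhouse.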

[8] = tested on: ducksalad (Heteranthera limosa); assay: Test B flooded paddy test
Method in brief: as §3

[9] = tested on: barnyardgrass (Echinochloa crus-galli); assay: Test B flooded paddy test
Method in brief: as §3

[10] = tested on: rice (Oryza sativa); assay: Test B flooded paddy test
Method in brief: as §3

[11] = tested on: galium (catchweed bedstraw, Galium aparine); assay: Test B pre-/postemergence plant response; settings: Postemergence
Method in brief: as §1

[12] = 31 g ai/ha, scale 0 to 100 (0 no effect, 100 complete control)
[13] = 62 g ai/ha, scale 0 to 100, 0 no effect, 100 complete control
[14] = Postemergence, 125 g ai/ha, 0 to 100 scale where 0 is no effect and 100 is complete control
[15] = Postemergence, 500 g ai/ha, visual injury, 0 to 100 scale (0 no effect, 100 complete control), approx. ten days
[16] = Preemergence, 125 g ai/ha, 0 to 100 scale, 0 = no effect, 100 = complete control
[17] = Preemergence, 500 g ai/ha, 0 to 100 scale, 0 = no effect, 100 = complete control
[18] = 250 g ai/ha, flooded paddy test, visual rating on 0 to 100 scale (0 no effect, 100 complete control) after 13 to 15 days
[19] = Flood (flooded paddy test), 62 g ai/ha, scale of 0 to 100 where 0 is no effect and 100 is complete control, 13 to 15 days
[20] = Flood (flooded paddy test), 125 g ai/ha, scale 0 to 100, 0 is no effect, 100 is complete control, 13 to 15 days
[21] = Flood, 31 g ai/ha, scale 0 to 100 (0 no effect, 100 complete control)

O=C1CCCC(O)=C1C(=O)c1cnc(-c2ccccc2)n(-c2ccccc2)c1=O [Compound 2, 5-[(2-hydroxy-6-oxo-1-cyclohexen-1-yl)carbonyl]-2,3-diphenyl-4(3H)-pyrimidinone]
Plant response rating, Nightshade ([1]; 16 g ai/ha, scale 0 to 100, 0 no effect, 100 complete control): 55
Plant response rating, Nightshade [1, 12]: 98
Plant response rating, Nightshade [1, 13]: 100
Nightshade plant response rating ([1]; 125 g ai/ha, 0 to 100 scale): 100
Plant response rating, Sunflower [2, 12]: 50
Plant response rating, Sunflower [2, 13]: 70
Sunflower plant response rating ([2]; 125 g ai/ha, 0 to 100 scale): 90
plant injury at 125 g/ha ([3]; Zea mays, post-emergence, 240 h, Postemergence, 125 g ai/ha, visual injury, 0 to 100 scale (0 no effect, 100 complete control), approx. ten days, read-out: Corn plant response rating): 30%
Corn plant response rating (crop injury, 0 = no effect, 100 = complete kill) at 500 g/ha ([3]; Zea mays, post-emergence, 240 h, Postemergence, 500 g ai/ha, 0 to 100 scale, 0 = no effect, 100 = complete control, approx. ten days): 90%
Corn plant response rating (crop injury, 0 = no effect, 100 = complete kill) at 125 g/ha ([3]; Zea mays, pre-emergence, 240 h, Preemergence, 125 g ai/ha, 0 to 100 scale, 0 = no effect, 100 = complete control): 0%
Corn plant response rating (crop injury, 0 = no effect, 100 = complete kill) at 500 g/ha ([3]; Zea mays, pre-emergence, 240 h, Preemergence, 500 g ai/ha, visual injury, 0 to 100 scale (0 no effect, 100 complete control), approx. ten days): 0%
pest or weed control at 125 g/ha ([4]; post-emergence, Postemergence, 125 g ai/ha, visual injury, 0 to 100 scale (0 no effect, 100 complete control), approx. ten days, read-out: Pigweed plant response rating): 100%
pest or weed control at 500 g/ha ([4]; post-emergence, Postemergence, 500 g ai/ha, 0 to 100 scale, 0 = no effect, 100 = complete control, approx. ten days, read-out: Plant response rating, Pigweed): 100%
pest or weed control at 125 g/ha ([4]; pre-emergence, Preemergence, 125 g ai/ha, 0 to 100 scale, 0 = no effect, 100 = complete control, read-out: Plant response rating, Pigweed): 100%
pest or weed control at 500 g/ha ([4]; pre-emergence, Preemergence, 500 g ai/ha, visual injury, 0 to 100 scale (0 no effect, 100 complete control), approx. ten days, read-out: Plant response rating, Pigweed): 100%
pest or weed control at 125 g/ha ([5]; post-emergence, Postemergence, 125 g ai/ha, visual injury, 0 to 100 scale (0 no effect, 100 complete control), approx. ten days, read-out: Barnyardgrass plant response rating): 100%
pest or weed control at 500 g/ha ([5]; post-emergence, Postemergence, 500 g ai/ha, 0 to 100 scale, 0 = no effect, 100 = complete control, approx. ten days, read-out: Plant response rating, Barnyardgrass): 100%
pest or weed control at 125 g/ha ([5]; pre-emergence, Preemergence, 125 g ai/ha, 0 to 100 scale, 0 = no effect, 100 = complete control, read-out: Plant response rating, Barnyardgrass): 10%
pest or weed control at 500 g/ha ([5]; pre-emergence, Preemergence, 500 g ai/ha, visual injury, 0 to 100 scale (0 no effect, 100 complete control), approx. ten days, read-out: Plant response rating, Barnyardgrass): 70%
pest or weed control at 125 g/ha ([6]; post-emergence, Postemergence, 125 g ai/ha, visual injury, 0 to 100 scale (0 no effect, 100 complete control), approx. ten days, read-out: Foxtail, Giant plant response rating): 90%
pest or weed control at 500 g/ha ([6]; post-emergence, Postemergence, 500 g ai/ha, 0 to 100 scale, 0 = no effect, 100 = complete control, approx. ten days, read-out: Plant response rating, Foxtail, Giant): 100%
pest or weed control at 125 g/ha ([6]; pre-emergence, Preemergence, 125 g ai/ha, 0 to 100 scale, 0 = no effect, 100 = complete control, read-out: Plant response rating, Foxtail, Giant): 50%
pest or weed control at 500 g/ha ([6]; pre-emergence, Preemergence, 500 g ai/ha, visual injury, 0 to 100 scale (0 no effect, 100 complete control), approx. ten days, read-out: Plant response rating, Foxtail, Giant): 90%
pest or weed control at 250 g/ha ([7]; Cyperus difformis, 360 h, 250 g ai/ha, flooded paddy test, visual rating on 0 to 100 scale (0 no effect, 100 complete control) after 13 to 15 days, read-out: Plant response rating, Flood, Sedge, Umbrella): 75%
pest or weed control at 31 g/ha ([7]; Cyperus difformis, 360 h, Flood (flooded paddy test), 31 g ai/ha, scale of 0 to 100 where 0 is no effect and 100 is complete control, 13 to 15 days, read-out: Plant response rating, Sedge, Umbrella): 0%
pest or weed control at 62 g/ha ([7]; Cyperus difformis, 360 h, Flood (flooded paddy test), 62 g ai/ha, scale 0 to 100, 0 is no effect, 100 is complete control, 13 to 15 days, read-out: Plant response rating, Sedge, Umbrella): 0%
pest or weed control at 125 g/ha ([7]; Cyperus difformis, 360 h, Flood (flooded paddy test), 125 g ai/ha, scale 0 to 100, 0 is no effect, 100 is complete control, 13 to 15 days, read-out: Plant response rating, Sedge, Umbrella): 45%
pest or weed control at 250 g/ha ([8]; Heteranthera limosa, 360 h, 250 g ai/ha, flooded paddy test, visual rating on 0 to 100 scale (0 no effect, 100 complete control) after 13 to 15 days, read-out: Plant response rating, Flood, Ducksalad): 78%
pest or weed control at 31 g/ha ([8]; Heteranthera limosa, 360 h, Flood (flooded paddy test), 31 g ai/ha, scale of 0 to 100 where 0 is no effect and 100 is complete control, 13 to 15 days, read-out: Plant response rating, Ducksalad): 15%
pest or weed control at 62 g/ha ([8]; Heteranthera limosa, 360 h, Flood (flooded paddy test), 62 g ai/ha, scale 0 to 100, 0 is no effect, 100 is complete control, 13 to 15 days, read-out: Plant response rating, Ducksalad): 40%
pest or weed control at 125 g/ha ([8]; Heteranthera limosa, 360 h, Flood (flooded paddy test), 125 g ai/ha, scale 0 to 100, 0 is no effect, 100 is complete control, 13 to 15 days, read-out: Plant response rating, Ducksalad): 58%
pest or weed control at 250 g/ha ([9]; Echinochloa crus-galli, 360 h, 250 g ai/ha, flooded paddy test, visual rating on 0 to 100 scale (0 no effect, 100 complete control) after 13 to 15 days, read-out: Plant response rating, Flood, Barnyardgrass): 0%
pest or weed control at 31 g/ha ([9]; Echinochloa crus-galli, 360 h, Flood (flooded paddy test), 31 g ai/ha, scale of 0 to 100 where 0 is no effect and 100 is complete control, 13 to 15 days, read-out: Plant response rating, Barnyardgrass): 0%
pest or weed control at 62 g/ha ([9]; Echinochloa crus-galli, 360 h, Flood (flooded paddy test), 62 g ai/ha, scale 0 to 100, 0 is no effect, 100 is complete control, 13 to 15 days, read-out: Plant response rating, Barnyardgrass): 0%
pest or weed control at 125 g/ha ([9]; Echinochloa crus-galli, 360 h, Flood (flooded paddy test), 125 g ai/ha, scale 0 to 100, 0 is no effect, 100 is complete control, 13 to 15 days, read-out: Plant response rating, Barnyardgrass): 0%
plant injury at 250 g/ha ([10]; Oryza sativa, 250 g ai/ha, flooded paddy test, visual rating on 0 to 100 scale (0 no effect, 100 complete control) after 13 to 15 days, read-out: Plant response rating, Flood, Rice): 8%
plant injury at 31 g/ha ([10]; Oryza sativa, Flood (flooded paddy test), 31 g ai/ha, scale of 0 to 100 where 0 is no effect and 100 is complete control, 13 to 15 days, read-out: Plant response rating, Rice): 0%
plant injury at 62 g/ha ([10]; Oryza sativa, Flood (flooded paddy test), 62 g ai/ha, scale 0 to 100, 0 is no effect, 100 is complete control, 13 to 15 days, read-out: Plant response rating, Rice): 0%
plant injury at 125 g/ha ([10]; Oryza sativa, Flood (flooded paddy test), 125 g ai/ha, scale 0 to 100, 0 is no effect, 100 is complete control, 13 to 15 days, read-out: Plant response rating, Rice): 0%

O=C1CCCC(O)=C1C(=O)c1cnc(-c2ccsc2)n(C2CCOCC2)c1=O [Compound 186]
Plant response rating, Galium ([11]; 31 g ai/ha, 0 to 100 scale (0 no effect, 100 complete control)): 40
Plant response rating, Galium ([11]; 125 g ai/ha, scale 0 to 100 (0 no effect, 100 complete control)): 70
Plant response rating, Galium ([11]; 250 g ai/ha, scale 0 to 100 (0 no effect, 100 complete control), 13 to 15 days): 70
Plant response rating, Corn [3, 14]: 0
Corn plant response rating [3, 15]: 60
Plant response rating, Corn [3, 16]: 0
Plant response rating, Corn [3, 17]: 0
Plant response rating, Pigweed [4, 14]: 100
Pigweed plant response rating [4, 15]: 100
Plant response rating, Pigweed [4, 16]: 50
Plant response rating, Pigweed [4, 17]: 100
Plant response rating, Barnyardgrass [5, 14]: 80
Barnyardgrass plant response rating [5, 15]: 90
Plant response rating, Barnyardgrass [5, 16]: 0
Plant response rating, Barnyardgrass [5, 17]: 60
Plant response rating, Foxtail, Giant [6, 14]: 80
Foxtail, Giant plant response rating [6, 15]: 90
Plant response rating, Foxtail, Giant [6, 16]: 20
Plant response rating, Foxtail, Giant [6, 17]: 60
Plant response rating, Flood, Sedge, Umbrella [7, 18]: 90
Plant response rating, Sedge, Umbrella [7, 19]: 80
Plant response rating, Sedge, Umbrella [7, 20]: 80
Sedge, Umbrella plant response rating [7, 21]: 70
Plant response rating, Flood, Ducksalad [8, 18]: 100
Plant response rating, Ducksalad [8, 19]: 90
Plant response rating, Ducksalad [8, 20]: 90
Ducksalad plant response rating [8, 21]: 90
Plant response rating, Flood, Barnyardgrass [9, 18]: 30
Plant response rating, Barnyardgrass [9, 19]: 20
Plant response rating, Barnyardgrass [9, 20]: 30
Barnyardgrass plant response rating [9, 21]: 0
Plant response rating, Flood, Rice [10, 18]: 65
Plant response rating, Rice [10, 19]: 20
Plant response rating, Rice [10, 20]: 45
Rice plant response rating [10, 21]: 10
